Results published in article PMC8112869, “Therapeutic inhibition of keratinocyte TRPV3 sensory channel by local anesthetic dyclonine” (eLife, 2021).

Target: T1, endogenous TRPV3 channels in mouse keratinocytes (Mus musculus, UniProt Q8K424)
T1 construct: endogenous in cells; host or cells: primary epidermal keratinocytes of newborn WT C57B/6 mice
T1 sequence (Q8K424 1-791): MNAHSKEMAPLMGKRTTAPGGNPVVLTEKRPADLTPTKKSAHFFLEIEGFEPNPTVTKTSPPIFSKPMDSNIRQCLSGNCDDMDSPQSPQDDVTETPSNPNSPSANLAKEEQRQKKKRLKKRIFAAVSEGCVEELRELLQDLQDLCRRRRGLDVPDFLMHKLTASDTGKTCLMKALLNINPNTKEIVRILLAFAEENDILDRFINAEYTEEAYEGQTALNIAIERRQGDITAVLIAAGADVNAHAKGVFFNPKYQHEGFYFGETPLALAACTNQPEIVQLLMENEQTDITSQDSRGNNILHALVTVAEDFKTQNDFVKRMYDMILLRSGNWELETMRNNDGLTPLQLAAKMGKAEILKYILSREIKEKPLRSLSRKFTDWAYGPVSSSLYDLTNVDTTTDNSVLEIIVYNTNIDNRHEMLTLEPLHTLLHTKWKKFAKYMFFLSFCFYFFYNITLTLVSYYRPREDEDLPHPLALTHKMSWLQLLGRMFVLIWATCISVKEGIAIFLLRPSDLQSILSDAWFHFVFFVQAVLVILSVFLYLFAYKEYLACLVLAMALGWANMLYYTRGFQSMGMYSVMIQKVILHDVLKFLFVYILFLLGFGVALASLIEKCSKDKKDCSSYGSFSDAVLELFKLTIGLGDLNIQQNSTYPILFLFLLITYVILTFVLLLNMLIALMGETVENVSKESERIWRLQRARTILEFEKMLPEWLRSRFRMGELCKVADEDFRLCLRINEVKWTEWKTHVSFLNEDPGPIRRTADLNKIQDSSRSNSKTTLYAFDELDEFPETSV
Assay: Whole-cell recording of 2-APB-evoked TRPV3 currents in primary mouse epidermal keratinocytes
Format: cell-based
Conditions: for TRPV3 currents, of control level: 300 μM 2-APB, –60 mV
Protocol: The animal protocol used in this study was approved by the Institutional Animal Care and Use Committee of Wuhan University. Primary mouse keratinocytes were prepared according to the method previously described ([Luo et al., 2012]; [Pirrone et al., 2005]). Briefly, newborn WT C57B/6 mice (postnatal days 1–3) were deeply anaesthetized and decapitated and then soaked in 10% povidone-iodine, 70% ethanol, and phosphate-buffered saline (PBS) for 5 min, respectively. The skin on the back was removed and rinsed with pre-cold sterile PBS in a 100 mm Petri dish and transferred into a 2 ml tube filled with pre-cold digestion buffer containing 4 mg/ml dispase II and incubated overnight at 4°C. After treatment with dispase II for 12–18 hr, the epidermis was gently peeled off from dermis and collected. Keratinocytes were dispersed by gentle scraping and flushing with KC growth medium (Invitrogen). The resulting suspension of single cells was collected by centrifuge, and cells were seeded onto coverslips pre-coated with poly-L-lysine and maintained in complete keratinocyte serum-free growth medium (Invitrogen). Cell culture medium was refreshed every two days. Patch-clamp recordings were carried out 48 hr after plating.
Conventional whole-cell and excised patch-clamp recording methods were used. For the recombinant expressing system, green fluorescent EGFP was used as a surface marker for gene expression. Recording pipettes were pulled from borosilicate glass capillaries (World Precision Instruments) and fire-polished to a resistance between 2 and 4 MΩ when filled with internal solution containing (in mM) 140 CsCl, 2.0 MgCl2, 5 EGTA, and 10 HEPES, pH 7.4 (adjusted with CsOH). Bath solution contained (in mM): 140 NaCl, 5 KCl, 3 EGTA, and 10 HEPES, pH 7.4 adjusted with NaOH. For recordings in keratinocytes, the bath saline consisted of (in mM) 140 NaCl, 5 KCl, 2 MgCl2, 2 CaCl2, 10 glucoses, and 10 HEPES, pH 7.4 adjusted with NaOH, and the pipette solution contained (in mM) 140 CsCl, 5 EGTA, and 10 HEPES, pH 7.3 adjusted with CsOH. For single-channel recordings, the pipette solution and bath solution were symmetrical and contained (in mM) 140 NaCl, 5 KCl, 3 EGTA, and 10 HEPES, pH 7.4. Isolated cells were voltage clamped and held at –60 mV using an EPC10 amplifier with the Patchmaster software (HEKAElectronics, Lambrecht, Germany). For a subset of recordings, currents were amplified using an Axopatch 200B amplifier (Molecular Devices, Sunnyvale, CA) and recorded through a BNC-2090/MIO acquisition system (National Instruments, Austin, TX) using QStudio developed by Dr. Feng Qin at State University of New York at Buffalo. […] As determined by the conductance tests, the solution around a patch under study was fully controlled by the application of a flow rate of 100 μl/min or greater. […]

**Q.** With `CCCCOc1ccc(C(=O)CCN2CCCCC2)cc1` [dyclonine] as the compound, how does the “TRPV3 currents, of control level” value (5 μM dyclonine) read?
**A.** 52% ± 7%

**Q.** What about the “TRPV3 currents, of control level” value (30 μM dyclonine) of the same compound?
**A.** 13% ± 0.01%

**Q.** What about the IC50 (300 μM 2-APB-evoked, read-out: IC50 on TRPV3 currents in cultured keratinocytes) of the same compound?
**A.** 5.2 ± 0.71 µM

**Q.** And the “Hill coefficient nH” value (keratinocytes)?
**A.** 2.4 ± 0.75
